Test results as given in patent EP0517347A1, “New combinations for the treatment of Parkinsons disease, containing NMDA-antagonists” (SCHERING AKTIENGESELLSCHAFT, priority 1991, dated 1992).

Tests used:
[1] = tested on: MPTP-behandelten Pinselohräffchen; test: Experimental Parkinson syndrome induced by the neurotoxin MPTP in marmosets; format: in vivo
Procedure: In gleicher Weise wurden die erfindungsgemäßen Verbindungen am Pinselohräffchen untersucht, bei denen durch das Neurotoxin MPTP ein experimentelles Parkinsonsyndrom erzeugt wurde.
Im gleichen Modell wurde CPP (0.1, 0.39, 1.56 mg/kg i.p.) mit den direkten Dopaminagonisten Apomorphin (0.05 mg/kg i.p. ) oder Lisurid (0.1 mg/kg i.p. ) geprüft (Abb. 3 und 4).

[2] = tested on: unilateral Substantia nigralädierten Ratten; test: Induction of contralateral rotations in rats with unilateral 6-OHDA lesion of the substantia nigra (automated rotometer); format: in vivo, Wistar-Ratten
Procedure: Die erfindungsgemäße Wirkung wird am Beispiel des CPP dargestellt: Auslösung von kontralateralen Rotationen an unilateral Substantia nigralädierten Ratten. Männliche Wistar-Ratten wurden 8 Monate vor dem Experiment durch Injektion von 16 µg 6-Hydroxydopamin (6-OHDA) in die linke Substantia nigra lädiert. Die Messung der Rotationen erfolgte in automatisierten Rotometern. Die Tiere wurden in Plexiglas-Halbschalen (Durchmesser 40 cm) gesetzt und mechanisch mit einem Winkelschrittgeber verbunden. Die Bewegungen mit und entgegen dem Uhrzeigersinn wurden getrennt in 10-Minuten-Intervallen für 2 Stunden erfasst.
Die Ergebnisse dieser Versuche lassen sich wie folgt zusammenfassen: Die mit Lösungsmitteln behandelten Tiere zeigen kaum spontane Rotationen.

Row | Compound | Wirkung von L-Dopa und Benserazid ([1]; CPP 0,1, 0,39, 1,56 mg/kg i.p. added to L-Dopa 20 mg/kg i.p. + Benserazid 20 mg/kg i.p., Abb. 2) | kombinierte Behandlung mit Apomorphin ([1]; CPP 0.1, 0.39, 1.56 mg/kg i.p. with Apomorphin 0.05 mg/kg i.p., analysis of variance and Tukey test, p < 0.0.1, Abb. 3 und 4) | kombinierte Behandlung mit Lisurid ([1]; CPP 0.1, 0.39, 1.56 mg/kg i.p. with Lisurid 0.1 mg/kg i.p., analysis of variance and Tukey test, p < 0.0.1, Abb. 3 und 4) | durch L-Dopa induzierte Rotationen ([2]; CPP 0,025, 0,39, 1,56 and 6,25 mg/kg i.p. added to L-Dopa 25 mg/kg i.p. + Benserazid 100 mg/kg i.p., Abb. 1) | Zahl der Rotationen in 2 Stunden ([2]; highest dose of CPP (6,25 mg/kg i.p.) plus L-Dopa + Benserazid, compared with L-Dopa treatment, Abb. 1) | Rotationsbewegungen ([2]; L+Dopa 25 mg/kg i.p. and Benserazid 100 mg/kg i.p., without CPP, 6-OHDA-lesioned rats)
1 | O=C(O)C1CN(CCCP(=O)(O)O)CCN1 (racemic) [CPP, 3-((±)-2-carboxy-piperazin-4-yl)-propyl-1-phosphonsäure] | dosisabhängig verstärkt | signifikantem Synergismus | signifikantem Synergismus | dosisabhängig verstärkt | signifikant von der L-Dopa Behandlung verschieden | 
2 | N[C@@H](Cc1ccc(O)c(O)c1)C(=O)O [L+Dopa] |  |  |  |  |  | leichte Rotationsbewegungen
